Reference: ChEMBL document CHEMBL1201862, “PubChem BioAssay data set” (2004)
Activity calls are given as the source filed them.

Tests used:
[1] = Counterscreen for IDE inhibitors: Luminescence-based cell-based high throughput dose response assay to identify compounds that are cytotoxic to HEK cells. [Related pubchem assays: 434962 (Primary screen (IDE inhibitors in singlicate)), 449730 (Counterscreen (Cytotoxicity in triplicate)), 435028 (Confirmation (IDE inhibitors in triplicate)) …; format: functional; settings: HEK293
[2] = biological target: Hepatocyte nuclear factor 4-alpha (Homo sapiens, UniProt P41235); format: functional, cell-based;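 also: biochemical luminescence-based dose-response counterscreen measuring inhibition of HNF4 dimerization, run alongside a screen for blockers of ABHD5–perilipin-5 interaction; split luciferase complementation of HNF4 fusion proteins in cell lysate measuring dimerization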
Hepatocyte nuclear factor 4-alpha, sequence (P41235 whole entry, the tested form may be a part): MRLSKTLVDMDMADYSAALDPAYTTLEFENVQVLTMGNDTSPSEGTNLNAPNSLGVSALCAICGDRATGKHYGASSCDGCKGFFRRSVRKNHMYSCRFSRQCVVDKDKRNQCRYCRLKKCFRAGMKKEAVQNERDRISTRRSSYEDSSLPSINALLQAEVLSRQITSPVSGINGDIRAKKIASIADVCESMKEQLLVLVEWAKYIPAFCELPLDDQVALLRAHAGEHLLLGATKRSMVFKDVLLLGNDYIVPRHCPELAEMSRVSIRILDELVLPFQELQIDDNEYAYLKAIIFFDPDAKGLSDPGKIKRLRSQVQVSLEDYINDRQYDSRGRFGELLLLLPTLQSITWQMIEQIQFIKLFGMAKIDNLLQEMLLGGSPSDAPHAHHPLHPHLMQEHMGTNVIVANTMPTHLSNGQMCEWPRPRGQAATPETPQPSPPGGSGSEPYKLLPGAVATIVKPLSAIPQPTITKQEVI

Insulin-degrading enzyme = biological target: T1, Insulin-degrading enzyme (Homo sapiens, UniProt P14735); experiment: Dose Response: Fluorescence polarization-based cell-based high throughput dose response assay for inhibitors of insulin-degrading enzyme (IDE). [Related pubchem assays: 434962 (Primary screen (IDE inhibitors in singlicate)), 449730 (Counterscreen (Cytotoxicity in triplicate)), 435028 (Confirmation (IDE inhibitors in triplicate)), 434984 (Summary …; format: functional
T1 sequence (P14735 whole entry): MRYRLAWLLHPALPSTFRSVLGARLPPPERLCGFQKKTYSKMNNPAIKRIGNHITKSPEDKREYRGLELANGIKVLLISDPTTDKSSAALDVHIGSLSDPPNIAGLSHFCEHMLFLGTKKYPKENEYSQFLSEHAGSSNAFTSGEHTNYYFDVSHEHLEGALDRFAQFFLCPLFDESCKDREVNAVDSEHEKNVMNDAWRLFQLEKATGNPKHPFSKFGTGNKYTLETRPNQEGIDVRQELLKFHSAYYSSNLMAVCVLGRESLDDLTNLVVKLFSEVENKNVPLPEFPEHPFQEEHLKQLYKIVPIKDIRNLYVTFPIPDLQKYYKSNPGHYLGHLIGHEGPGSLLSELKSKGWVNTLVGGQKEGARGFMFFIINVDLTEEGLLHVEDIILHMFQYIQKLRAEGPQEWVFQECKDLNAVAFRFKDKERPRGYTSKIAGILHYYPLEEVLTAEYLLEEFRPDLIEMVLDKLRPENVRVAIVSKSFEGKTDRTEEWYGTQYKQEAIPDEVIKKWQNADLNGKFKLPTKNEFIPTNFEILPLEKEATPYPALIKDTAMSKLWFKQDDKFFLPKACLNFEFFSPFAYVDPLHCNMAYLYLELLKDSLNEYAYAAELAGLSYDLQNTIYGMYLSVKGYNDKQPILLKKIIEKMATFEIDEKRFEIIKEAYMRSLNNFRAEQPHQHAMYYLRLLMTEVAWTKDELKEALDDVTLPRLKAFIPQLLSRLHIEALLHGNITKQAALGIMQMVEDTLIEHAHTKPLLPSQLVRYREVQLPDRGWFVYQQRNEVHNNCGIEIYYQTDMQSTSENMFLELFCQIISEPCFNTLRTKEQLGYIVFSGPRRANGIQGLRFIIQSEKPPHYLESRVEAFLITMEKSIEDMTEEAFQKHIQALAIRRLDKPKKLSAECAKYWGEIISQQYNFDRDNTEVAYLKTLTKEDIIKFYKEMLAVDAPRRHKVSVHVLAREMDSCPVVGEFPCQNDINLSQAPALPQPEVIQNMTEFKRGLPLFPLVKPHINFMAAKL

[3] = biological target: T2, Heat shock factor protein 1 (Mus musculus, UniProt P38532); experiment: enhancement of HSF1-driven luciferase signal – cell-based, NIH3T3, luminescence, dose retest, confirmation (AID 435004); format: functional;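 also: stress induced by proteasome inhibitor MG132 added 30 min after compound; luciferase reporter driven by HSF1 response element in NIH3T3 cells; actives raise luminescence as potentiators of the MG132 stress response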
T2 sequence (P38532 whole entry): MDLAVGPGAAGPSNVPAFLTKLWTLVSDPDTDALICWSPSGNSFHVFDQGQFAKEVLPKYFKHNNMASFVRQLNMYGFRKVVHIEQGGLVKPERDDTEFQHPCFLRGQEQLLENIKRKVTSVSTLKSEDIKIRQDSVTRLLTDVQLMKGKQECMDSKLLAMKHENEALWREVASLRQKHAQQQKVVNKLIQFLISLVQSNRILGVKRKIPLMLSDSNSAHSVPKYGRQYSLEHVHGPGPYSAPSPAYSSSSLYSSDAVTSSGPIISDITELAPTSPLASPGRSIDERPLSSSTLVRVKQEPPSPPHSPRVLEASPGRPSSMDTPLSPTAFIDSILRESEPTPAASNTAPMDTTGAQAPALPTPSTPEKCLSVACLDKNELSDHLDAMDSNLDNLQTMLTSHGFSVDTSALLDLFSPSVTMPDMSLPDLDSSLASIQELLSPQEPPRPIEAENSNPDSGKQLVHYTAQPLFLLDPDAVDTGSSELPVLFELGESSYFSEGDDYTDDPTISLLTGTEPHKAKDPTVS

NS3 = NS3 (Hepatitis C virus, UniProt A3EZJ3); experiment: PubChem AID 2173; design: species or system Hepacivirus hominis
NS3, sequence (A3EZJ3 whole entry): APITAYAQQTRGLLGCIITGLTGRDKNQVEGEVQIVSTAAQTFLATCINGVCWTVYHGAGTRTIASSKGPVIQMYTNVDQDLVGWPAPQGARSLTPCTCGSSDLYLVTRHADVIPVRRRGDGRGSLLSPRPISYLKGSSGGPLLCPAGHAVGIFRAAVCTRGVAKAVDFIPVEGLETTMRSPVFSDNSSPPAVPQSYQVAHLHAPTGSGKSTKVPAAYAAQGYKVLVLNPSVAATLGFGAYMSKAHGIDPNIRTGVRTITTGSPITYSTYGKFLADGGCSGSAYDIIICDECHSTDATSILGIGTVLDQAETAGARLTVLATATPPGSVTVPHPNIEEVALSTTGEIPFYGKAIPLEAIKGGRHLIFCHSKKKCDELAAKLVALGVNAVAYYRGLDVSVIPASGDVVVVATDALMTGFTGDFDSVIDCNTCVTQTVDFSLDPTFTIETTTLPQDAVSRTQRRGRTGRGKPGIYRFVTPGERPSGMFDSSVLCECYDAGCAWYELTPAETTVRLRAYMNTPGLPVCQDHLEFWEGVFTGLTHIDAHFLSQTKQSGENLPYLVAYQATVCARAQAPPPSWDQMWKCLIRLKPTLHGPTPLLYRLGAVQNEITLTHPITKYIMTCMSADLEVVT

[4] = Luminescence Cell-Based Dose Retest to Confirm Inhibitors of Cancer Stem Cells. [Related pubchem assays (depositor defined):AID2717, AID2721]; format: functional; settings: Homo sapiens
[5] = activation of miR-122 Renilla sensor silencing – cell-based, Huh7 psiCHECK-miR122, Renilla luciferase, cherry-picked, dose response (AID 651956); format: functional;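 also: huh7 hepatoma cells stably carrying a psiCHECK-2 miR-122 sensor plasmid; renilla luciferase signal reporting endogenous miR-122 activity after 48 h compound exposure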
Vero [6] = experiment: cells; format: functional; settings: Chlorocebus sabaeus
Vero [7] = experiment: cells; format: functional, cell-based; settings: Chlorocebus sabaeus
H4 = experiment: Luminescence Cell-Based Dose Response HTS to Identify Activators of 5'UTR Stem-Loop Driven Prion Protein mRNA Translation in H4 Neuroglioblastoma Cells. [Related pubchem assays: 1829 (Project Summary), 1814 (Primary HTS)]; format: functional; settings: Homo sapiens
[8] = Counterscreen for activators of the function of SWI/SNF related, matrix associated, actin dependent regulator of chromatin, subfamily a, member 2 (SMARCA2, BRM): Luminescence-based cell-based high throughput dose response assay to identify non-selective compounds using the VP16 reporter assay.; format: functional
[9] = Luminescence Cell-Based Dose Confirmation HTS to Identify Activators of 5'UTR Stem-Loop Driven Alpha-Synuclein mRNA Translation in H4 Neuroglioblastoma Cells. [Related pubchem assays: 1829 (Project Summary), 1814 (Primary HTS)]; format: functional
HEK293 [10] = experiment: SAR Analysis of small molecule inhibitors of T-cell specific antigen receptor-induced NF-kB activation in a HEK-293T cell line using a luminescence assay - Set 2. [Related pubchem assays (depositor defined):AID435003, AID435012, AID489026]; format: functional, cell-based; settings: Homo sapiens
Jurkat = experiment: SAR Analysis of small molecule inhibitors of T-cell specific antigen receptor-induced NF-kB activation in a Jurkat cell line using a luminescence assay - Set 2. [Related pubchem assays (depositor defined):AID435003, AID435012, AID465]; format: functional, cell-based; settings: Homo sapiens
HEK293 [11] = experiment: HEK293T cell viability loss, resazurin readout – resazurin fluorescence, cytotoxicity control for NF-kB activator project, SAR follow-up (AID 493251); format: functional, cell-based; settings: Homo sapiens
[12] = biological target: SWI/SNF-related matrix-associated actin-dependent regulator of chromatin subfamily A member 2 (Homo sapiens, UniProt P51531); experiment: Luminescence-based cell-based high throughput dose response assay to identify activators of the function of SWI/SNF related, matrix associated, actin dependent regulator of chromatin, subfamily a, member 2 (SMARCA2, BRM).; format: functional
SWI/SNF-related matrix-associated actin-dependent regulator of chromatin subfamily A member 2, sequence (P51531 whole entry): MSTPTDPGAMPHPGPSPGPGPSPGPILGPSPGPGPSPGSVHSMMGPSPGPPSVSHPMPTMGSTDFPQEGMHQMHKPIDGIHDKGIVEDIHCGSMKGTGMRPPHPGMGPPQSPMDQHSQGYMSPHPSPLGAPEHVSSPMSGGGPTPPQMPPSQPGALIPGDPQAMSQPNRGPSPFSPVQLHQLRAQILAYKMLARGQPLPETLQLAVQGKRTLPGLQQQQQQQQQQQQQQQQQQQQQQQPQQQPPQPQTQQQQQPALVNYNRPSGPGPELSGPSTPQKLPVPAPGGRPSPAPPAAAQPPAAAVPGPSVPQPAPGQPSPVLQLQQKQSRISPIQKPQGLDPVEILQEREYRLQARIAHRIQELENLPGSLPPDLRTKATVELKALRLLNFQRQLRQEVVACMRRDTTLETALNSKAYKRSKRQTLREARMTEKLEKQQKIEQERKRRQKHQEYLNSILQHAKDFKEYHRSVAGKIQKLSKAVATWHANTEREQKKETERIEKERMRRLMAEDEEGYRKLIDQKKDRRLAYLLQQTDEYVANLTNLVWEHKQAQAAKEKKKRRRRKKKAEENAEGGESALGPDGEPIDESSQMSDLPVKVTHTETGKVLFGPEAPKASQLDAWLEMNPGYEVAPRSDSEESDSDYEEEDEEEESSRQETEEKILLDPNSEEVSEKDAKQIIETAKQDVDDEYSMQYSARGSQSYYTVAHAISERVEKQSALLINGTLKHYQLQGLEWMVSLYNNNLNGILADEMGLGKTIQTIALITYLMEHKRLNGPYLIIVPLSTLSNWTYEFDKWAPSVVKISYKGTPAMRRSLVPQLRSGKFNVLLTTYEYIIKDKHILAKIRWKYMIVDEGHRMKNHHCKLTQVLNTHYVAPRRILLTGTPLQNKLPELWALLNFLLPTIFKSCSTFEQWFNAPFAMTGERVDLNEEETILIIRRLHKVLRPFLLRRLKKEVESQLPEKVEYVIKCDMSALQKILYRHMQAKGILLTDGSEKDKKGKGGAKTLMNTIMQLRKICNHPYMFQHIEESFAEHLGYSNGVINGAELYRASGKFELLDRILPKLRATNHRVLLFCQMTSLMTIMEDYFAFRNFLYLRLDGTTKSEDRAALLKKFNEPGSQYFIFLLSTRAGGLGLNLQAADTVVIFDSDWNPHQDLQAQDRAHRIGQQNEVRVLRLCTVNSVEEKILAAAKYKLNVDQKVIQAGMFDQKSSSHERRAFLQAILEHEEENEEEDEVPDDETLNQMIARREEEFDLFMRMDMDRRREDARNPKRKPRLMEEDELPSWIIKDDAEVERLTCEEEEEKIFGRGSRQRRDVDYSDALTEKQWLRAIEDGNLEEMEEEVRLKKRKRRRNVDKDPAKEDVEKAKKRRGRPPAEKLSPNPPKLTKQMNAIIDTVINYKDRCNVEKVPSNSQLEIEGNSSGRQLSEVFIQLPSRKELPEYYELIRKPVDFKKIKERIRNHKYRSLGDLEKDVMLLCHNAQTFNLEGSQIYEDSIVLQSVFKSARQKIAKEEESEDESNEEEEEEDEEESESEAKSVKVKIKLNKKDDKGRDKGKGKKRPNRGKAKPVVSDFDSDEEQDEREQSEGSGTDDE

[13] = Luminescence Cell-Based Dose Response HTS to Identify Activators of Luciferase Translation or Activity in H4 […] Cells. [Related pubchem assays: 1829 (Project Summary), 1814 (Primary HTS)]; format: functional
Beta-lactamase [14] = biological target: Beta-lactamase (Salmonella choleraesuis (strain SC-B67), UniProt Q5J463); experiment: Epi-absorbance-based counterscreen for selective VIM-2 inhibitors: dose response biochemical high throughput screening assay to identify inhibitors of TEM-1 serine-beta-lactamase.
Beta-lactamase (Salmonella choleraesuis (strain SC-B67), UniProt Q5J463), sequence (Q5J463 whole entry): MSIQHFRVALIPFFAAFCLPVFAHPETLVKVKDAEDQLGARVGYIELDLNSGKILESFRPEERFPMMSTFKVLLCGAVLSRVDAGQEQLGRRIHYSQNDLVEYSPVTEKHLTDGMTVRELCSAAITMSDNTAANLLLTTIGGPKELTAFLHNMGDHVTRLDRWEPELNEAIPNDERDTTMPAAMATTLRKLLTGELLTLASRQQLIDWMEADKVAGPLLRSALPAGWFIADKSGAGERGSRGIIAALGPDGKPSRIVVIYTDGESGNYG

Beta-lactamase [15] = biological target: T3, Beta-lactamase (Pseudomonas aeruginosa, UniProt Q79MP6); experiment: inhibition of IMP-1 beta-lactamase activity – biochemical, epi-absorbance, selectivity assay for VIM-2 inhibitor project, dose response (AID 1920)
T3 sequence (Q79MP6 whole entry): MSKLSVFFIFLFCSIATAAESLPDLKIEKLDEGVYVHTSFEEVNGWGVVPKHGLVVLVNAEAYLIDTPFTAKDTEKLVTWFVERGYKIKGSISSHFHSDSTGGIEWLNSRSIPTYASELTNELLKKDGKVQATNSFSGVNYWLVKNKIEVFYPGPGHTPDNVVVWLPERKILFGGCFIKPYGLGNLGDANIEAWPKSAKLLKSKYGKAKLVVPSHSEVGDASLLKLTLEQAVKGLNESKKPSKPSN

Beta-lactamase [16] = biological target: T3, Beta-lactamase; experiment: […] counterscreen for selective VIM-2 inhibitors: dose response biochemical high throughput screening assay to identify inhibitors of IMP-1 metallo-beta-lactamase.

Cc1ccc(C(=O)/C=C/c2cc(Br)cc(Br)c2O)o1
IC50 [1]: 19.8 µM (not active)
IC50 [2]: 11 µM (inactive)
IC50 (Insulin-degrading enzyme): 21 µM (not active)
EC50 [3]: 16.8 µM (active)
IC50 (NS3): 9.14 µM (active)
AC50 [4]: 3.09 µM (active)

CC(C)C#Cc1ccc2c(c1)O[C@H](CN(C)C(=O)c1ccncc1)[C@H](C)CN([C@H](C)CO)S2(=O)=O
AC50 [5]: 3.04 µM (active)

CC(=O)c1ccc(NC(=O)c2ccc([N+](=O)[O-])o2)cc1
CC50 (Vero [6]): 14.3 µM (active)
IC50 (Vero [7]): > 25 µM (active)
EC50 (H4): > 120 µM (not active)
EC50 [8]: > 91.1 µM (inactive)
EC50 [9]: > 120 µM (not active)
IC50 (HEK293 [10]): 38.9 µM (inactive)
IC50 (Jurkat): 35.2 µM (inactive)
IC50 (HEK293 [11]): 51.8 µM (inactive)
AC50 [4]: 4.95 µM (active)
EC50 [12]: > 91.1 µM (inactive)
EC50 [13]: > 120 µM (not active)

COCC(=O)Nc1nnc(SCC(=O)NCc2cccs2)s1
IC50 (Beta-lactamase [14]): > 59.6 µM (inactive)
IC50 (Beta-lactamase [15]): > 59.6 µM (inactive)
IC50 (Beta-lactamase [16]): > 59.6 µM (inactive)
